According to the NIST ThermoML archive (doi:10.1021/je8007167):
“And” between values parts separate entries of the source, which are not always exact repeats. Equal entries are not always repeated. Numbers after ± are expanded uncertainties.

Details: Crystal, Torsion effusion method

[Cl][Al]([Cl])[Cl] [aluminum chloride]
Details | vapor or sublimation pressure
321 K | 0.00017 ± 7.1e-05 kPa
323 K | 0.000234 ± 7.4e-05 kPa
327 K | 0.00038 ± 9.1e-05 kPa
329 K | 0.000525 ± 9.3e-05 kPa and 0.000513 ± 9.2e-05 kPa
330 K | 0.00055 ± 0.0001 kPa
333 K | 0.000676 ± 0.00016 kPa
334 K | 0.000891 ± 0.00027 kPa
336 K | 0.001023 ± 0.00032 kPa
338 K | 0.001622 ± 0.0004 kPa
339 K | 0.001622 ± 0.00048 kPa and 0.001585 ± 0.00048 kPa
340 K | 0.002089 ± 0.00056 kPa and 0.001862 ± 0.00055 kPa
342 K | 0.002455 ± 0.00068 kPa
343 K | 0.002951 ± 0.00065 kPa
344 K | 0.003388 ± 0.00081 kPa
345 K | 0.003631 ± 0.0008 kPa and 0.003715 ± 0.0008 kPa
346 K | 0.003981 ± 0.0011 kPa
347 K | 0.004898 ± 0.0012 kPa and 0.004266 ± 0.0011 kPa
348 K | 0.004786 ± 0.0011 kPa and 0.00537 ± 0.0011 kPa
349 K | 0.00631 ± 0.0015 kPa
350 K | 0.006761 ± 0.0012 kPa
351 K | 0.006761 ± 0.002 kPa and 0.006457 ± 0.002 kPa
352 K | 0.008318 ± 0.0019 kPa
353 K | 0.008318 ± 0.0017 kPa and 0.008913 ± 0.0017 kPa
354 K | 0.01072 ± 0.0022 kPa and 0.00912 ± 0.0023 kPa
355 K | 0.01202 ± 0.0021 kPa and 0.01175 ± 0.0021 kPa
356 K | 0.01175 ± 0.0036 kPa
358 K | 0.01445 ± 0.0036 kPa and 0.01585 ± 0.0035 kPa
362 K | 0.02399 ± 0.0058 kPa
363 K | 0.0263 ± 0.0057 kPa
366 K | 0.03715 ± 0.0084 kPa
368.5 K | 0.04898 ± 0.011 kPa
369 K | 0.05129 ± 0.011 kPa
372 K | 0.06918 ± 0.018 kPa
373 K | 0.08511 ± 0.018 kPa
376.5 K | 0.1175 ± 0.019 kPa
378 K | 0.1288 ± 0.019 kPa

[F][Al]([F])[F] [aluminum fluoride]
Details | vapor or sublimation pressure
956 K | 0.000105 ± 3.5e-05 kPa
960 K | 0.000132 ± 3.9e-05 kPa
968 K | 0.000209 ± 2.5e-05 kPa
970 K | 0.000209 ± 2.4e-05 kPa
974 K | 0.000209 ± 3.3e-05 kPa
975 K | 0.000209 ± 3.9e-05 kPa
977 K | 0.000263 ± 3.8e-05 kPa
982 K | 0.000316 ± 4.3e-05 kPa
985 K | 0.000363 ± 4.8e-05 kPa
987 K | 0.000363 ± 5.4e-05 kPa
991 K | 0.000417 ± 6.9e-05 kPa and 0.000468 ± 6.9e-05 kPa
994 K | 0.000468 ± 8e-05 kPa
998 K | 0.000575 ± 8.2e-05 kPa
1001 K | 0.000631 ± 8.5e-05 kPa
1002 K | 0.000676 ± 8.8e-05 kPa
1007 K | 0.000724 ± 0.0001 kPa
1010 K | 0.000813 ± 0.00012 kPa
1013 K | 0.000933 ± 0.00015 kPa
1014 K | 0.000933 ± 0.00015 kPa
1018 K | 0.001122 ± 0.00014 kPa
1022 K | 0.001259 ± 0.00018 kPa
1023 K | 0.001259 ± 0.00017 kPa
1026 K | 0.001413 ± 0.0002 kPa
1029 K | 0.001549 ± 0.0002 kPa
1033 K | 0.00182 ± 0.00024 kPa
1036 K | 0.001862 ± 0.00029 kPa
1040 K | 0.002188 ± 0.00027 kPa
1043 K | 0.002512 ± 0.00033 kPa
1048 K | 0.002754 ± 0.00032 kPa
1052 K | 0.003162 ± 0.00038 kPa and 0.003236 ± 0.00038 kPa
1053 K | 0.003236 ± 0.00044 kPa
1059 K | 0.00389 ± 0.00058 kPa
1062 K | 0.004467 ± 0.00055 kPa
1063 K | 0.004365 ± 0.00054 kPa
1066 K | 0.005012 ± 0.00067 kPa
1070 K | 0.00537 ± 0.00073 kPa
1071 K | 0.005754 ± 0.0007 kPa
1074 K | 0.00631 ± 0.0008 kPa
1078 K | 0.006918 ± 0.00086 kPa
1083 K | 0.008128 ± 0.00097 kPa and 0.008318 ± 0.00097 kPa
1086 K | 0.008913 ± 0.0011 kPa
1089 K | 0.009333 ± 0.0013 kPa
1093 K | 0.01072 ± 0.0012 kPa
1097 K | 0.0123 ± 0.0016 kPa
1098 K | 0.01202 ± 0.0016 kPa
1100 K | 0.01288 ± 0.0015 kPa
1104 K | 0.01479 ± 0.0019 kPa
1107 K | 0.01549 ± 0.0019 kPa
1109 K | 0.01698 ± 0.0019 kPa
1112 K | 0.0182 ± 0.0024 kPa
1113 K | 0.01862 ± 0.0023 kPa
